Organism: Rattus norvegicus
Test: Open TG-GATES - Regimen: Daily Repeat
Assay type: toxicity, organism-based, Sprague-Dawley
Parameters: regimen Daily Repeat, gender Male, age 6 weeks
Conditions: in vivo, po, 0 mg/kg, route gavage, dose level Control; for APTT / Bas / Eos / Fbg / Hb / Ht / Lym / MCHC / MCV / Mono / Neu / PT / Plat / RBC / Ret / WBC: tissue Blood
[1] = 72 h, tissue Kidney, time 3 day
[2] = 72 h, tissue Plasma, time 3 day

C1CCC(C(CC2CCCCN2)C2CCCCC2)CC1 (configuration not stated) [PERHEXILINE]
TERMINAL_BW (72 h, time 3 day): 228.9 g
APTT (72 h, time 3 day): 21.9 s
Bas (72 h, time 3 day): 0%
Eos (72 h, time 3 day): 0.8%
Fbg (72 h, time 3 day): 312.4 mg/dL
Hb (72 h, time 3 day): 13.2 g/dL
Ht (72 h, time 3 day): 39.2%
Lym (72 h, time 3 day): 79%
MCHC (72 h, time 3 day): 33.8%
MCV (72 h, time 3 day): 63.9 fL
Mono (72 h, time 3 day): 2.8%
Neu (72 h, time 3 day): 16.2%
PT (72 h, time 3 day): 16.7 s
Plat (72 h, time 3 day): 133 x10_4/uL
RBC (72 h, time 3 day): 613.6 x10_4/ul
Ret (72 h, time 3 day): 7%
WBC (72 h, time 3 day): 89.3 x10_2/uL
KIDNEY_L [1]: 1.1 g
KIDNEY_R [1]: 1 g
KIDNEY_TOTAL [1]: 2.1 g
LIVER (72 h, tissue Liver, time 3 day): 11.1 g
ALP [2]: 1695 IU/L
ALT [2]: 45.8 IU/L
AST [2]: 76.4 IU/L
BUN [2]: 16.4 mg/dL
CRE [2]: 0.1 mg/dL
Ca [2]: 11 mg/dL
Cl [2]: 107.2 meq/L
DBIL [2]: 0 mg/dL
GLC [2]: 192.6 mg/dL
IP [2]: 6.9 mg/dL
K [2]: 4.3 meq/L
LDH [2]: 248.8 IU/L
Na [2]: 143.2 meq/L
PL [2]: 149.4 mg/dL
RALB [2]: 3.2 g/dL
TBIL [2]: 0.01 mg/dL
TC [2]: 75.6 mg/dL
TG [2]: 113.8 mg/dL
TP [2]: 5.8 g/dL
gamma-GTP [2]: 1 IU/L
TERMINAL_BW ([…], time 7 day): 255.2 g
TERMINAL_BW ([…], time 14 day): 290.3 g
TERMINAL_BW ([…], time 28 day): 335.5 g
APTT ([…], time 7 day): 21.5 s
Bas ([…], time 7 day): 0%
Eos ([…], time 7 day): 0.6%
Fbg ([…], time 7 day): 316.4 mg/dL
Hb ([…], time 7 day): 13.5 g/dL
Ht ([…], time 7 day): 38.5%
Lym ([…], time 7 day): 81.8%
MCHC ([…], time 7 day): 35.2%
MCV ([…], time 7 day): 61.3 fL
Mono ([…], time 7 day): 1.4%
Neu ([…], time 7 day): 15%
PT ([…], time 7 day): 16.1 s
Plat ([…], time 7 day): 118.5 x10_4/uL
RBC ([…], time 7 day): 629 x10_4/ul
Ret ([…], time 7 day): 5.6%
WBC ([…], time 7 day): 110.4 x10_2/uL
APTT ([…], time 14 day): 23.3 s
Bas ([…], time 14 day): 0%
Eos ([…], time 14 day): 0.2%
Fbg ([…], time 14 day): 294 mg/dL
Hb ([…], time 14 day): 15 g/dL
Ht ([…], time 14 day): 42.7%
Lym ([…], time 14 day): 82%
MCHC ([…], time 14 day): 35.2%
MCV ([…], time 14 day): 60.8 fL
Mono ([…], time 14 day): 1.2%
Neu ([…], time 14 day): 15.2%
PT ([…], time 14 day): 16.2 s
Plat ([…], time 14 day): 116.2 x10_4/uL
RBC ([…], time 14 day): 702.8 x10_4/ul
Ret ([…], time 14 day): 3.5%
WBC ([…], time 14 day): 97.2 x10_2/uL
APTT ([…], time 28 day): 21.5 s
Bas ([…], time 28 day): 0%
Eos ([…], time 28 day): 0.6%
Fbg ([…], time 28 day): 316.4 mg/dL
Hb ([…], time 28 day): 13.5 g/dL
Ht ([…], time 28 day): 38.5%

— ChEMBL document CHEMBL3885861, “Open TG-GATES”
